From US20110207760A1, “SN-38 COMPOSITIONS” (priority 2010, published 2011)

Assay: Pharmacokinetics of SN-38 and SN-38G after i.v. dosing of SN-38 in 40% SBECD
Assay type: in vivo, Female Sprague-Dawley rats
Settings: rat, i.v.
Procedure: Female Sprague-Dawley rats, 4 animals per group received i.v. injections of SN-38 (doses 0.65 mg/kg and 2 mg/kg) in 40% SBECD. The SN-38 solution for the treatment was prepared by the dilution of concentrated composition of the Example 1 with water. The blood plasma samples were collected from each group of animals, extracted using liquid extraction with cold methanol/acetonitrile mixture (1:1 v/v), and analyzed using a HPLC method with fluorescent detection. The results, including levels of SN-38 and SN-38G in plasma and calculated values of area under the curve (AUC) for SN-38 and SN-38G are presented in Tables 5 and 6 below.

SMILES: CCc1c2c(nc3ccc(O[C@@H]4O[C@H](C(=O)O)[C@@H](O)[C@H](O)[C@H]4O)cc13)-c1cc3c(c(=O)n1C2)COC(=O)[C@]3(O)CC [SN-38G, SN-38 glucuronide]
- AUC (dosing SN-38 0.65 mg/kg in 40% SBECD): 275 ng·h/mL
- Plasma levels (dosing SN-38 0.65 mg/kg in 40% SBECD, 0.17 h): 266.5 ng/mL
- Plasma levels (dosing SN-38 0.65 mg/kg in 40% SBECD, 0.5 h): 150.7 ng/mL
- Plasma levels (dosing SN-38 0.65 mg/kg in 40% SBECD, 0.75 h): 97.1 ng/mL
- Plasma levels (dosing SN-38 0.65 mg/kg in 40% SBECD, 1 h): 61.5 ng/mL
- Plasma levels (dosing SN-38 0.65 mg/kg in 40% SBECD, 3 h): 15.7 ng/mL
- Plasma levels (dosing SN-38 0.65 mg/kg in 40% SBECD, 6 h): 6.0 ng/mL
- AUC (dosing SN-38 2 mg/kg in 40% SBECD): 1085 ng·h/mL
- Plasma levels (dosing SN-38 2 mg/kg in 40% SBECD, 0.17 h): 1282.0 ng/mL
- Plasma levels (dosing SN-38 2 mg/kg in 40% SBECD, 0.5 h): 747.7 ng/mL
- Plasma levels (dosing SN-38 2 mg/kg in 40% SBECD, 0.75 h): 289.8 ng/mL
- Plasma levels (dosing SN-38 2 mg/kg in 40% SBECD, 1 h): 239.9 ng/mL
- Plasma levels (dosing SN-38 2 mg/kg in 40% SBECD, 3 h): 27.6 ng/mL
- Plasma levels (dosing SN-38 2 mg/kg in 40% SBECD, 6 h): 18.5 ng/mL
